The source of these data is US10273487B2, “Transfection vector for pathogenic amoebae and uses thereof” (priority 2017, dated 2019).

Values after ≈ are worked out from the molar mass of the structure shown. Read-outs that look alike come from different tables or passages of the source.

In assay [1] the test system is N. fowleri. Put plainly: Preliminary experiments on natural resistance of N. fowleri to selection marker.
Description: Five different selection markers were screened for their suitability to use in an N. fowleri transfection system. […] Hygromycin was used in subsequent studies as the selectable marker, partly due to its easy use in other eukaryotic transfection systems.
Assay [2] concerns N. fowleri. Put plainly: MTS viability assays in N. fowleri. Also on record: IC50 Value / IC90 Value: unit not given beside the values. To be noted: for IC50 Value / IC90 Value / IC95 Value: MTS viability assay, N. fowleri, Table 1, unit not given. (In general: Formazan colour is commonly taken as a measure of viable cells.)

For the molecule neomycin, the “resistance of N. fowleri to the selection marker” value in assay [1] was “natural resistance”. For the same molecule, in assay [2], the “IC50 Value” is 681.1, the “IC90 Value” is 2385.3 and the “IC95 Value” stood at 3078.4.
A word on the IC50: it is the concentration at which inhibition is half-maximal. By IC90 is commonly meant the concentration at which the effect reaches the 90% level. Take `COc1ccc(C[C@H](N)C(=O)N[C@H]2[C@@H](O)[C@H](n3cnc4c(N(C)C)ncnc43)O[C@@H]2CO)cc1` [puromycin]: the “IC95 Value” in assay [2] worked out at 1.91. In addition, the IC50 turned out to be 0.58 µg/mL (≈ 1.23 µM) in assay [2] (Naegleria fowleri, read-out: IC50 Value) and 0.6 µg/mL (≈ 1.27 µM) in assay [2] (Naegleria fowleri, read-out: IC50 values). In addition, in assay [2] (Naegleria fowleri, read-out: IC90 Value), the IC90 worked out at 1.49 µg/mL (≈ 3.16 µM).
As for nourseothricin, in assay [2], the “IC50 Value” is reported as 26.5, the “IC90 Value” is on record as 165.4 and the “IC95 Value” amounted to 218.7.
For bleomycin, in assay [2], the “IC50 Value” is on record as 0.49, the “IC90 Value” was 1.62 and the “IC95 Value” is 2.10.
